Patent publication US12391672B2, “Solid forms comprising (S)-4-(4-(4-(((2-(2,6-dioxopiperidin-3-yl)-1-oxoisoindolin-4-yl)oxy)methyl)benzyl)piperazin-1-yl)-3-fluorobenzonitrile and salts thereof, and compositions comprising and methods of using the same” (Celgene Corporation, priority 2019, dated 2025)
≈ marks a conversion by molar mass, not a printed value.

Experiments:
Format in all cases: physicochemical
[1] = Solubility of polymorphic forms in physiologically relevant media and final pH
Excerpt: Solubility data of the several polymorphic forms of Compound 1 in physiologically relevant media and the final pH of these solutions are summarized in the following tables.

[2] = Dynamic vapor sorption / hygroscopicity; details: for hygroscopicity: DVS, class by mass gain at 85% r.h.; for DVS mass increase: relative humidity from about 5% to about 95%
Protocol: Projekt Messtechnik (now ProUmid) SPS11-100n. The sample was placed on an aluminum holder on top of a microbalance and allowed to equilibrate at 50% r.h. before starting one of the following pre-defined humidity programs (1 cycle): • hold 2 h at 50% r.h., • decrease humidity −5% r.h. h^−1 for 10 h (i.e., from 50% r.h. to 0% r.h.), • hold 5 h at […]., • increase humidity +5% r.h. h^−1 for 19 h (i.e., from 0% r.h. to 95% r.h.), • hold 5 h at 95% r.h., • decrease humidity −5% r.h. h^−1 for 9 h (i.e., from 95% r.h. to 50% r.h.), • hold 2 h at 50% r.h. or • hold 2 h at 50% r.h., • increase humidity +5% r.h. h^−1 for 9 h (i.e., from 50% r.h. to 95% r.h.), • hold 5 h at 95% r.h., • decrease humidity −5% r.h. h^−1 for 19 h (i.e., from 95% r.h. to 0% r.h.), • hold 5 h at 0% r.h., • increase humidity +5% r.h. h^−1 for 10 h (i.e., from 0% r.h. to 50% r.h.), • hold 2 h at 50% r.h.
The hygroscopicity was classified based on the mass gain at 85% r.h. relative to the initial mass as follows: deliquescent (sufficient water adsorbed to form a liquid), very hygroscopic (mass increase of […]), hygroscopic (mass increase of <15% but ≥2%), slightly hygroscopic (mass increase of <2% but ≥0.2%), or non-hygroscopic (mass increase of <0.2%).

[3] = Solid state stability under accelerated storage conditions
Protocol: Form A was not isolated directly as a wet cake but formed only upon drying of Form E in polymorphism studies. […] Small quantities of Form A were generated by dissolving a crude Compound 1 in MEK at high temperature, followed by fast cooling to room temperature, filtration and drying. DSC and TGA data were obtained for samples of Form A and following storage for 1 week at 60° C. and 60° C./75% RH. […] TGA analysis confirmed that this broad endotherm was most likely due to moisture uptake under the accelerated storage conditions. Most of the weight loss of 0.82% in this sample occurred in a single step at less than 75° C. By contrast, weigh loss was a two-step process at the initial time point. […] The residual solvent initially present in the sample was lost upon storage of the sample at 60° C. (0.13% weight loss between 25 to 150° C.).
Form B could be obtained from a process involving methyl acetate. […] HPLC traces were taken of the samples of Form B and following storage for 2 week at 60° C. and 60° C./75% RH. […] Several small degradation products were seen to grow especially in the sample stored at 60° C. Chiral instability was also observed in the sample stored at 60° C./75% RH.
Physical stability: Visually, all samples of Form K were white colored powder with no apparent change in color in the samples stored under accelerated conditions (40° C., 40° C./75% RH, 60° C., 60° C./75% RH and sample stored in light chamber in clear vials exposed to light and covered in aluminum foil) for 14 d relative to the sample stored refrigerated and under ambient conditions.
Solid state chemical stability: HPLC analysis were performed on Form K samples stored under the accelerated stability conditions. […] Based on the HPLC analysis data, there is a measurable but small change in the chemical stability of Form K under the accelerated conditions of temperature, humidity and exposure to light over the 14 d period.
Solid state chiral stability: Chiral stability of Form K samples stored under accelerated stability conditions was tested. There was ˜2.9% of the R-enantiomer (97.1 area % of the active S-isomer) in the initial sample. […]
The chiral purity (area % of S-isomer) remained […] under the accelerated stability conditions.

[4] = Mechanical stressing (grinding, compression); details: ground with a mortar and pestle for 2 min; listed as Form A
Protocol: Mechanical stressing experiment: the following table describes three experiments involving mechanical stressing of Form A and/or Form B of free base Compound 1 by grinding with a mortar and pestle.
Shear Sensitivity: Form K was compressed under 2000 psi for 1 minute and analyzed by XRPD.

[5] = Competitive slurry and slurry stability experiments; details: water, prolonged stirring
Protocol: Form B was obtained at room temperature while form C was obtained at 45° C. in acetone alone.
The HBr salt was largely insoluble in various buffers when 1 mg/mL slurries were prepared and the mother liquor concentration determined (by HPLC): <0.05 mg/mL in all buffers tested.

[6] = Thermal treatment / racemization on heating; details: N2 flow, 200° C. held for several minutes, cooled quickly
Protocol: Thermal treatment of solid forms: the following table summarizes two experiments carried out using solvent-free thermal treatment of forms of Compound 1. The goal of these experiments was to determine whether the endotherm at 225° C. observed in many DSC experiments corresponded to the melting of the racemate of Compound 1 or whether it was a polymorphic form of Compound 1. Two experiments involved generation of different solid forms of Compound 1, the amorphous form and Form E. The resulting products were subsequently heated to temperatures where exothermic events had been observed in DSC thermograms. Both experiments confirmed that the racemate was generated by heating.
Racemization of Compound 1 during the DSC analysis was confirmed by heating the samples to various temperatures and analyzing these samples by a chiral HPLC method as well as by comparison of the melting point with a pure sample of the racemate of Compound 1. Upon heating the sample to 160° C., the chiral purity was essentially unchanged (96.1 area % at 160° C. vs. 97.1% initial). This supports the interpretation of the sharp endotherm seen in the DSC thermogram at about 152.6° C. as the melt of the enantiomer. Between 160-218° C. a gradual conversion of the enantiomer to the racemate occurs along with the recrystallization of the racemate. This explains the unsteady baseline over this temperature range and the small broad endotherm observed at about 197.1° C. […] This melting point matches the peak melting point (about 225.6° C.) of the pure racemate of Compound 1.

N#Cc1ccc(N2CCN(Cc3ccc(COc4cccc5c4CN([C@H]4CCC(=O)NC4=O)C5=O)cc3)CC2)c(F)c1 [Form A of a free base of Compound 1] showed a Solubility ([1]; FeSSiF, listed as Form A) of 86 µg/mL (≈ 152 µM), a Solubility ([1]; SGF with pepsin, listed as Form A) of 429 µg/mL (≈ 756 µM) and a Solubility ([1]; pH 1 buffer HC1/NaC1, listed as Form A) of 88 µg/mL (≈ 155 µM). The Solubility ([1]; pH 3 buffer (phosphate), listed as Form A) was 280 µg/mL (≈ 493 µM), the Solubility ([1]; pH 4 buffer (acetate), listed as Form A) was 159 µg/mL (≈ 280 µM) and the Solubility ([1]; pH 5 buffer (acetate), listed as Form A) was 8 µg/mL (≈ 14.1 µM). The “Final pH” value ([1]; solubility sample in FaSSIF, listed as Form A) was 6.44, the “Final pH” value ([1]; solubility sample in FeSSiF, listed as Form A) was 5.05 and the “Final pH” value ([1]; solubility sample in SGF with pepsin, listed as Form A) was 1.34. For the same compound, the “Final pH” value ([1]; solubility sample in Water, listed as Form A) was 6.77, the “Final pH” value ([1]; solubility sample in pH 1 buffer HC1/NaC1, listed as Form A) was 1.14 and the “Final pH” value ([1]; solubility sample in pH 3 buffer (phosphate), listed as Form A) was 3.70. The “Final pH” value ([1]; solubility sample in pH 4 buffer (acetate), listed as Form A) was 4.11, the “Final pH” value ([1]; solubility sample in pH 5 buffer (acetate), listed as Form A) was 5.03 and the hygroscopicity ([2]; listed as Form A) was “slightly hygroscopic (slightly hygroscopic (mass increase of <2% but ≥0.2%))”. For the same compound, the DVS mass increase ([2]; listed as Form A) was “about 2.4%”, the “DSC trace after storage” value ([3]; 1 week at 60° C.) was “quite similar to the initial condition” and the “physical form after storage (DSC, TGA)” value ([3]; 1 week at 60° C./75% RH) was “changes in physical form were observed”. For the same compound, the “PXRD result after mechanical treatment” value [4] was “no change in polymorphic form;”.

With N#Cc1ccc(N2CCN(Cc3ccc(COc4cccc5c4CN([C@H]4CCC(=O)NC4=O)C5=O)cc3)CC2)c(F)c1 [Form C of a free base of Compound 1] the Solubility ([1]; FaSSIF) was 1 µg/mL (≈ 1.76 µM), the Solubility ([1]; FeSSiF, listed as Form C) was 31 µg/mL (≈ 54.6 µM) and the Solubility ([1]; SGF with pepsin, listed as Form C) was 427 µg/mL (≈ 752 µM). The Solubility ([1]; Water) was “<LOQ”, the Solubility ([1]; pH 1 buffer HC1/NaC1, listed as Form C) was 108 µg/mL (≈ 190 µM) and the Solubility ([1]; pH 3 buffer (phosphate), listed as Form C) was 277 µg/mL (≈ 488 µM). The Solubility ([1]; pH 4 buffer (acetate), listed as Form C) was 65 µg/mL (≈ 115 µM), the Solubility ([1]; pH 5 buffer (acetate), listed as Form C) was 3 µg/mL (≈ 5.29 µM) and the “Final pH” value ([1]; solubility sample in FaSSIF, listed as Form C) was 6.44. The “Final pH” value ([1]; solubility sample in FeSSiF, listed as Form C) was 5.05, the “Final pH” value ([1]; solubility sample in SGF with pepsin, listed as Form C) was 1.29 and the “Final pH” value ([1]; solubility sample in Water, listed as Form C) was 6.86. The “Final pH” value ([1]; solubility sample in pH 1 buffer HC1/NaC1, listed as Form C) was 1.07, the “Final pH” value ([1]; solubility sample in pH 3 buffer (phosphate), listed as Form C) was 3.31 and the “Final pH” value ([1]; solubility sample in pH 4 buffer (acetate), listed as Form C) was 4.14. For the same compound, the “Final pH” value ([1]; solubility sample in pH 5 buffer (acetate), listed as Form C) was 5.11, the hygroscopicity ([2]; listed as Form C) was “hygroscopic (hygroscopic (mass increase of <15% but ≥2%))” and the DVS mass increase ([2]; listed as Form C) was “about 8.3%”. The “physical and chemical stability” value ([3]; accelerated stability conditions) was “physically and chemically stable” and the “competitive slurry of Form C and Form K” value [5] was “gradual conversion of Form C to Form K”.

For N#Cc1ccc(N2CCN(Cc3ccc(COc4cccc5c4CN([C@H]4CCC(=O)NC4=O)C5=O)cc3)CC2)c(F)c1 [Form E of a free base of Compound 1], the “solid form after DVS cycle” value ([2]; after the DVS humidity cycle, listed as Form E) was “primarily amorphous material” and the “PXRD result after thermal treatment” value [6] was “racemate”.
